Results as given in US9920017B2, “Heterocyclic compounds as pesticides” (BAYER CROPSCIENCE AKTIENGESELLSCHAFT, priority 2014, dated 2018).
Like-named read-outs stand apart in the source and are kept apart here.

Columns and labels:
Boophilus microplus = Boophilus microplus injection test; assay type: in vivo; settings: 20 μg/animal injected into engorged adult female cattle ticks; assessed after 7 days by laying of fertile eggs
Protocol: Boophilus microplus—Injection Test
(§1) Solvent: dimethyl sulphoxide
To produce an appropriate active ingredient formulation, 10 mg of active ingredient are mixed with 0.5 ml of solvent and the concentrate is diluted with solvent to the desired concentration.
1 μl of the active ingredient solution is injected into the abdomen of 5 engorged adult female cattle ticks (Boophilus microplus). The animals are transferred into dishes and kept in a climate-controlled room.
Efficacy is assessed after 7 days by laying of fertile eggs. Eggs which are not visibly fertile are stored in a climate-controlled cabinet for about another 42 days until the larvae hatch. An efficacy of 100% means that none of the ticks has laid any fertile eggs; 0% means that all the eggs are fertile.

Lucilia cuprina = Lucilia cuprina test; assay type: in vivo; settings: 100 ppm; L1 larvae; after 2 days
Protocol: Lucilia cuprina Test Solvent: dimethyl sulphoxide To produce an appropriate active ingredient formulation, 10 mg of active ingredient are mixed with 0.5 ml of dimethyl sulphoxide, and the concentrate is diluted with water to the desired concentration. About 20 L1 larvae of the Australian sheep blowfly (Lucilia cuprina) are transferred into a test vessel containing minced horsemeat and the active ingredient preparation of the desired concentration. After 2 days, the kill in % is determined 100% means that all the larvae have been killed; 0% means that no larvae have been killed.

Musca domestica = Musca domestica test; assay type: in vivo; settings: 100 ppm; adult houseflies; after 2 days
Protocol: Musca domestica Test Solvent: dimethyl sulphoxide To produce an appropriate active ingredient formulation, 10 mg of active ingredient are mixed with 0.5 ml of dimethyl sulphoxide, and the concentrate is diluted with water to the desired concentration. Vessels containing a sponge treated with sugar solution and the active ingredient formulation of the desired concentration are populated with 10 adult houseflies (Musca domestica). After 2 days, the kill in % is determined 100% means that all of the flies have been killed; 0% means that none of the flies have been killed.

Meloidogyne incognita = Meloidogyne incognita test (MELGIN); assay type: in vivo; settings: 20 ppm; lettuce; after 14 days
Protocol: Meloidogyne incognita Test (MELGIN) Solvent: 125.0 parts by weight of acetone To produce a suitable active ingredient formulation, 1 part by weight of active ingredient is mixed with the stated amount of solvent and the concentrate is diluted with water to the desired concentration. Vessels are filled with sand, active ingredient solution, an egg/larvae suspension of the southern root-knot nematode (Meloidogyne incognita) and lettuce seeds. The lettuce seeds germinate and the plants develop. The galls develop on the roots. After 14 days, the nematicidal efficacy in % is determined by the formation of galls. 100% means that no galls were found; 0% means that the number of galls on the treated plants corresponds to the untreated control.

[1] = Determination of log P values by HPLC (reversed-phase C18); assay type: physicochemical; settings: for chromatographic logP: reversed-phase C18 HPLC column
Method in brief: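 Log P per EEC Directive 79/831 Annex V.A8 by reversed-phase C18 HPLC at 55 °C, […], gradient 10→95% acetonitrile in 4.25 min. Calibrated with unbranched alkan-2-ones (C3–C16) by retention-time interpolation; lambda max from UV spectra 200–400 nm.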

Phaedon cochleariae = Phaedon cochleariae spray test (PHAECO); assay type: in vivo; settings: 500 g/ha; Chinese cabbage leaf discs, larvae; after 7 days
Protocol: Phaedon cochleariae—Spray Test (PHAECO)
(§2) Solvent: 78.0 parts by weight of acetone • • 1.5 parts by weight of dimethylformamide
(§3) Emulsifier: alkylaryl polyglycol ether
(§4) To produce an appropriate active ingredient formulation, 1 part by weight of active ingredient is dissolved using the stated parts by weight of solvent and made up with water containing an emulsifier concentration of 1000 ppm until the desired concentration is attained. To produce further test concentrations, the preparation is diluted with emulsifier-containing water.
Discs of Chinese cabbage leaves (Brassica pekinensis) are sprayed with an active ingredient formulation of the desired concentration and, after drying, populated with larvae of the mustard beetle (Phaedon cochleariae).
After 7 days, the efficacy in % is determined 100% means that all the beetle larvae have been killed; 0% means that no beetle larvae have been killed.

Cooperia curticei = Cooperia curticei test; assay type: in vivo; settings: 20 ppm; nematode larvae; after 5 days
Protocol: as §1
To produce an appropriate active ingredient formulation, 10 mg of active ingredient are mixed with 0.5 ml of dimethyl sulphoxide and the concentrate is diluted with “Ringer's solution” to the desired concentration.
Vessels containing the active ingredient formulation of the desired concentration are populated with about 40 nematode larvae (Cooperia curticei).
After 5 days, the kill in % is determined 100% means that all the larvae have been killed; 0% means that none of the larvae have been killed.

Haemonchus contortus = Haemonchus contortus test; assay type: in vivo; settings: 20 ppm; larvae; after 5 days
Protocol: Haemonchus contortus Test Solvent: dimethyl sulphoxide To produce an appropriate active ingredient formulation, 10 mg of active ingredient are mixed with 0.5 ml of dimethyl sulphoxide and the concentrate is diluted with “Ringer's solution” to the desired concentration. Vessels containing the active ingredient formulation of the desired concentration are populated with about 40 larvae of the red stomach worm (Haemonchus contortus). After 5 days, the kill in % is determined 100% means that all the larvae have been killed; 0% means that none of the larvae have been killed.

Myzus persicae = Myzus persicae spray test; assay type: in vivo; settings: 500 g/ha; Chinese cabbage leaf discs; after 6 days
Protocol: Myzus persicae—Spray Test
Solvent: 78 parts by weight of acetone • • 1.5 parts by weight of dimethylformamide
as §3, §4
Discs of Chinese cabbage leaves (Brassica pekinensis) infested by all stages of the green peach aphid (Myzus persicae) are sprayed with an active ingredient formulation of the desired concentration.
After 6 days, the efficacy in % is determined 100% means that all the aphids have been killed; 0% means that no aphids have been killed.

Tetranychus urticae = Tetranychus urticae spray test, OP-resistant; assay type: in vivo; settings: 500 g/ha, bean leaf discs, after 6 days
Protocol: Tetranychus urticae—Spray Test, OP-Resistant
as §2, §3, §4
Discs of bean leaves (Phaseolus vulgaris) infested by all stages of the greenhouse red spider mite (Tetranychus urticae) are sprayed with an active ingredient formulation of the desired concentration.
After 6 days, the efficacy in % is determined. 100% means that all the spider mites have been killed; 0% means that no spider mites have been killed.

[2] = pH 3.4, HPLC-MS, preparation examples, read-out: log P
[3] = HPLC, reversed-phase C18, 55° C., final compounds table, read-out: log P neutral
[4] = HPLC, reversed-phase C18, 55° C., final compounds table

| SMILES | efficacy (Boophilus microplus) | nematicidal efficacy (formation of galls) (Meloidogyne incognita) | efficacy (Phaedon cochleariae) | log P neutral [1, 4] | further results |
| --- | --- | --- | --- | --- | --- |
| O=C(Nc1ncn(-c2c(F)cccc2F)n1)c1ccccc1C(F)(F)F [Compound I-1-11, 2-Trifluoromethyl-N-[1-(2,6-difluorophenyl)-1H-1,2,4-triazol-3-yl]benzamide] | 100% | 90% | – | – | efficacy (kill) (Lucilia cuprina): 100%; efficacy (kill) (Musca domestica): 80%; chromatographic logP [1, 2]: 1.97; chromatographic logP [1, 3]: 1.97 |
| O=C(Nc1ncn(-c2c(F)cccc2F)n1)c1ccccc1C(F)F [Compound I-1-18] | 80% | 100% | 83% | 1.92 | – |
| O=C(Nc1ncn(-c2c(F)cccc2F)n1)c1ccccc1I [Compound I-1-21] | – | 100% | – | 1.89 | efficacy (kill) (Cooperia curticei): 100%; efficacy (kill) (Haemonchus contortus): 80% |
| O=C(Nc1ncn(-c2c(F)cccc2F)n1)c1nccnc1C(F)(F)F [Compound I-1-24] | 100% | 100% | – | 1.73 | efficacy (kill) (Lucilia cuprina): 100%; efficacy (kill) (Musca domestica): 80% |
| O=C(Nc1ncn(-c2c(F)cccc2Cl)n1)c1ccccc1C(F)(F)F [Compound I-1-33] | 100% | 100% | 100% | 2.10 | efficacy (kill) (Cooperia curticei): 100% |
| O=C(Nc1ncn(-c2ccccc2Br)n1)c1ccccc1I [Compound I-1-72] | – | – | – | 2.09 | efficacy (Myzus persicae): 90% |
| Cc1cc(C)c([S+]([O-])CC(F)(F)F)cc1-n1cnc(NC(=O)c2ccccc2C(F)(F)F)n1 (stereo not shown) [Compound I-1-90] | – | – | – | 2.31 | efficacy (Tetranychus urticae): 95% |
| O=C(Nc1ncn(-c2c(F)cccc2F)n1)c1ncccc1C(F)(F)F [Compound I-1-91] | – | 100% | 100% | 1.82 | – |
| O=C(Nc1nnn(-c2ccccc2)n1)c1ccccc1C(F)(F)F [Compound I-2-3, N-(2-Phenyl-2H-tetrazol-5-yl)-2-(trifluoromethyl)benzamide] | – | – | 100% | – | chromatographic logP [1, 2]: 2.57; chromatographic logP [1, 3]: 2.57 |
